Data reported in BindingDB's records for doi:10.1016/j.ejmech.2023.115229 (Sichuan University, 2023).

Target: Ribosomal protein S6 kinase alpha-2 (Homo sapiens, UniProt Q15349)
Experiment: Inhibition of RSK3 (unknown origin)

Ribosomal protein S6 kinase alpha-2, sequence (Q15349 whole entry): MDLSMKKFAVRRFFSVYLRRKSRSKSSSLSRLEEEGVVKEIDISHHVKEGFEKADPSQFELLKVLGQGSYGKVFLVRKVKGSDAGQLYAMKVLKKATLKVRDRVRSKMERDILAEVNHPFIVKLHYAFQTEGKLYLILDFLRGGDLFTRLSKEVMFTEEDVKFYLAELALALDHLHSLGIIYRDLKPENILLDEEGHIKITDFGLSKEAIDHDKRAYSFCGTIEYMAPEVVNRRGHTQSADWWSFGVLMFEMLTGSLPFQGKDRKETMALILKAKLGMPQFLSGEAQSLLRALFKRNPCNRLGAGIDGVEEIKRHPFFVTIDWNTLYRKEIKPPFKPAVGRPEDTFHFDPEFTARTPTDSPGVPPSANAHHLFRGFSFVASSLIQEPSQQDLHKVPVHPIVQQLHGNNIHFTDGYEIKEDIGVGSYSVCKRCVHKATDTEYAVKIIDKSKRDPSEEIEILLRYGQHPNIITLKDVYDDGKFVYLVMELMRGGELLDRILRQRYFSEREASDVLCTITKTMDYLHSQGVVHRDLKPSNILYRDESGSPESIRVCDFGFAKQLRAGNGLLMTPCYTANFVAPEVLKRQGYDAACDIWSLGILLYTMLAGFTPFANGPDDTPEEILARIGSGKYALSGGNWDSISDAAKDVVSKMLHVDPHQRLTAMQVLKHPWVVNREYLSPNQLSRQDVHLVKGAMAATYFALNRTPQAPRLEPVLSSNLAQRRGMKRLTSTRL

O=c1c(O)c(-c2ccc(O)c(O)c2)oc2cc(O)ccc12 [2-(3,4-dihydroxyphenyl)-3,7-dihydroxy-chromen-4-one]
IC50: 891 nM
